Test results reported in PMC6442233, “SAR and molecular mechanism studies of monoamine oxidase inhibition by selected chalcone analogs” (Journal of Enzyme Inhibition and Medicinal Chemistry, 2019).

What was measured:
human MAO-B [1] = biological target: T1, human MAO-B (Homo sapiens, UniProt P27338); test: IC50 determination for MAO-B inhibition (kynuramine, fluorescence); assay type: biochemical; conditions: for Selectivity index: SI = IC50(MAO-A)/IC50(MAO-B); for IC50: recombinant hMAO-B, kynuramine 50 μM, mean ± SD (triplicate)
T1 construct: purchased Sigma-Aldrich
T1 sequence (P27338 1-520): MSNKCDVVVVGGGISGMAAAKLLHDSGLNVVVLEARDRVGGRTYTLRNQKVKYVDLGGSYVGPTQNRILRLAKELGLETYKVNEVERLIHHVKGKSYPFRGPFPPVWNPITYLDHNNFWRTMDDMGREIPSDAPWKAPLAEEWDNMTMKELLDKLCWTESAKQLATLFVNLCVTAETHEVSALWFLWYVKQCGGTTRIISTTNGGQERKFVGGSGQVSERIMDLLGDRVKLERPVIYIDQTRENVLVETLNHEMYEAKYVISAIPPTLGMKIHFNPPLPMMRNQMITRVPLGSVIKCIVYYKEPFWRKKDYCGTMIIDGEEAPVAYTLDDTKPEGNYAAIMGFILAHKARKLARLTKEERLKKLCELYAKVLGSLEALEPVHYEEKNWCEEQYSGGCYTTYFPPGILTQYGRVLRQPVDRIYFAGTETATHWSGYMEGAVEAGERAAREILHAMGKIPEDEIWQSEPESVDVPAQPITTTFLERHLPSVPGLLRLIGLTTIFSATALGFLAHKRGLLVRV
Method: (§1) IC50 values for the inhibition of MAO were determined by using the recombinant human MAO-A and MAO-B enzymes (Sigma-Aldrich). Enzyme reactions were performed at a final volume of 200 µL in white 96-well microplates (Eppendorf), with the reaction solvent consisting of potassium phosphate buffer (100 mM, pH 7.4, adjusted to isotonicity with KCl). The reactions contained the nonselective MAO substrate, kynuramine (50 μM), and the test inhibitors at 0.003–100 µM. The test compounds were initially dissolved in DMSO (100%), and after addition to the reactions yielded a concentration of 4% DMSO. Control reactions were included, which contained substrate and 4% DMSO but no test inhibitor. The MAO reactions were started by adding MAO-A (0.0075 mg protein/mL) or MAO-B (0.015 mg protein/mL), and were subsequently incubated for a period of 20 min (37 °C) in a convection oven. A volume of 80 µL 2 N sodium hydroxide was added to the reactions, and the fluorescence intensity of 4-hydroxyquinoline (the end-product of the MAO-catalyzed metabolism of kynuramine) in the reactions was measured at λex 310 and λem 400 nm. To quantify 4-hydroxyquinoline, a calibration curve (linear) ranging from 0.047 to 1.56 μM, was employed. […] These measurements were carried out in triplicate and the IC50 values are presented as the mean ± standard deviation (SD)[18].
(§2) The formation of the dihydropyridinium species (MMDP^+) as a MAO-catalyzed oxidation product of MMTP was monitored at 420 nm. […] Based on this, the IC50 values were determined using kynuramine as a nonselective substrate. The rate of oxidation of kynuramine by MAO was monitored by measuring the fluorescence of the oxidation product, 4-hydroxyquinoline (λex= 310 nm; λem= 400 nm).

human MAO-A [2] = biological target: T2, human MAO-A (Homo sapiens, UniProt P21397); test: IC50 determination for MAO-A inhibition (kynuramine, fluorescence); assay type: biochemical; conditions: recombinant hMAO-A, kynuramine 50 μM, mean ± SD (triplicate)
T2 construct: purchased Sigma-Aldrich
T2 sequence (P21397 1-527): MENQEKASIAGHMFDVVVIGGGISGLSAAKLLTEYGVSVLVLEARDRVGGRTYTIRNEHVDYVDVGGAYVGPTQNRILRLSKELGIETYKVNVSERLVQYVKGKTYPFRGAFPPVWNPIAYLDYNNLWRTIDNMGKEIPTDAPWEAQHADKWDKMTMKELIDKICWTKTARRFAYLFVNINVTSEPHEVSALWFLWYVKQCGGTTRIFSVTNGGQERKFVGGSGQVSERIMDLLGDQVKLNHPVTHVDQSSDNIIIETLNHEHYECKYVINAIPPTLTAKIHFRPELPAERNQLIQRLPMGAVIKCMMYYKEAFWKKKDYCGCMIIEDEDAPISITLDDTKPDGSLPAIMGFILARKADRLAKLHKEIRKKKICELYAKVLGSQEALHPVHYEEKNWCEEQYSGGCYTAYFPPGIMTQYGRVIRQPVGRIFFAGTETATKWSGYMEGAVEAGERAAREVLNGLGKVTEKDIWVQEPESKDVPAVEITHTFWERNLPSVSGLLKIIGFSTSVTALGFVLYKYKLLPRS
Method: as §1, §2

MAO-B mRNA expression = MAO-B mRNA expression in H4IIE cells (qRT-PCR); assay type: cell-based, rat; conditions: 70 µM
Method: (§3) Rat hepatoma (H4IIE) cells were purchased from American Type Culture Collection (ATCC). H4IIE cells are from rat liver, and contain both MAO-A and MAO-B in approximately equal levels. Cells were cultured in Eagle’s minimum essential medium (EMEM) supplemented with 10% fetal bovine serum (FBS) and 1% streptomycin/penicillin at 37 °C in a 5% CO2 humidified incubator. Cells were plated at a cell density of 3.0 × 10^5 cells in each well of six well plates. Upon 80% confluence, the cells were washed with phosphate buffered saline (PBS) and the media were changed to HBSS supplemented with 10 mM HEPES and 5 mM D-glucose, pH 7.4. These media also contained calcium chloride (1.26 mM) and magnesium chloride (0.5 mM). Cells were then treated with tolcapone (1 0^−6 M), a catechol-O-methyltransferase (COMT) inhibitor to protect dopamine from enzymatic degradation, 20 min prior to starting the experiment. The cells were treated with the negative vehicle control (1% DMSO) or 70 µM of the MAO-B inhibitors (compounds 12, 14, 16, and 17) with the DMSO concentration also being 1%. The cells were subsequently treated with L-DOPA (50 µM). To measure dopamine release and MAO-B gene expression, both the cells and media were collected at 0, 30, 60, and 120 min after treatment. Dopamine level was measured in the supernatant aspirated from the cells by using high performance liquid chromatography (HPLC), while the cells were lysed with trizol for RNA extraction and subsequent gene expression studies.
Total RNA was isolated using the Trizol agent (Invitrogen). One μg of RNA from each sample was reverse transcribed to cDNA using the M-MLV reverse transcriptase kit, according to the manufacturer’s instruction (Promega). PowerUp SYBR green master mix (Life technologies) was used for quantitative real-time polymerase chain reaction (qRT-PCR) for analysis of gene expression. The following primers were used (IDTs) MAO-B forward, […]; MAO-B reverse, […]; β-actin forward, […] and β-actin reverse, […]. qRT-PCR was performed in a 384 well plates with the Quant Studio-5 instrument (Applied Biosystems). Samples were carried out in triplicate in a 10 µL reaction volume using the following cycling conditions: UDG activation for one cycle at 50 °C for 2 min, followed by a single cycle at 95 °C for 2 min, then 40 cycles of denaturation at 95 °C for 15 s, and annealing at 60 °C for 1 min. β-actin was used as a loading control and gene expression was calculated using the 2^-ΔΔCT method as described previously.
(§4) One-way ANOVA followed by Dunnett’s test (compared to the vehicle-control) was used to analyze the data obtained for the dopamine concentrations for compounds 12, 14, 16, and 17targeting MAO-B at 0, 30, 60, and 120 min. One-way ANOVA followed by Newman–Keuls multiple comparison tests was used to analyze time-dependent effects of compounds 14 and 17 on the relative mRNA expression (triplicate) of MAO-B enzyme.

[3] = test system: Rat hepatoma (H4IIE) cells; test: Dopamine assay in H4IIE cells (HPLC with electrochemical detection); assay type: cell-based; conditions: 70 µM compound, 50 µM L-DOPA
Method: as §3
Rat hepatoma cells (H4IIE) were treated with 1% DMSO (vehicle-control), compounds 12, 14, 16, or 17 for different time points at a concentration of 70 µM of each compound along with 50uM L-DOPA.
The concentrations of dopamine were detected using a CoulArray electrochemical array detector system as described previously. Briefly, supernatants obtained from cell culture were filtered using 0.22 μm filter. The filtrates were subsequently injected onto a C18 column (3.2 × 150 mm, 3 μm particle size, Thermo Scientific). The mobile phase consisted of a mixture of 54.3 mM sodium phosphate, 0.215 mM octyl sodium sulfate, 0.32 mM citric acid and 11% methanol. Dopamine concentrations were measured with the CoulArray Electrochemical Array Detector. The chromatograms were analyzed using the CoulArray software. A standard calibration curve was determined using different concentrations of an external standard dopamine (SigmaAldrich).
as §4

human MAO-A [4] = biological target: T2, human MAO-A; test: Lineweaver-Burk plots and Ki calculation, MAO-A; assay type: biochemical
Method: (§5) Sets of six Lineweaver–Burk plots each were prepared to determine if the inhibition of MAO-A and MAO-B by compound 16 is competitive. […] The substrate, kynuramine, was used at concentrations ranging from 15 to 250 μM, whereas the final enzyme concentration was 0.015 mg protein/mL. […] Ki values were estimated by graphing the slopes of the Lineweaver–Burk plots against inhibitor concentration. The intercept of the x-axis is equal to –Ki.

human MAO-A [5] = biological target: T2, human MAO-A; test: Reversibility of MAO-A inhibition by dialysis; assay type: biochemical; conditions: for Reversibility of MAO-A inhibition: dialysis 24 h, inhibitor at 4 × IC50
Method: (§6) The reversibility of inhibition of MAO by compound 16 was investigated by dialysis. Dialysis cassettes (Slide-A-Lyzer®; Thermo Scientific) with a volume of 0.5–3 mL and a molecular weight cutoff of 10,000 were used for the dialysis. […] The volume of these mixtures was 0.8 mL, and contained 4% DMSO. The mixtures were pre-incubated for 15 min at 37 °C and then dialyzed at 4 °C in buffer (80 mL), using the above buffer as dialysis buffer. After 3 and 7 h of dialysis, the dialysis buffer was changed with fresh buffer. […] For comparison, incubations of the MAOs and the test inhibitor were prepared as above but were not dialyzed and kept at 4 °C over the same time period. These experiments were carried out in triplicate, and the remaining enzyme catalytic rates are reported as the mean (± SD).

human MAO-B [6] = biological target: T1, human MAO-B; test: Reversibility of MAO-B inhibition by dialysis; assay type: biochemical
Method: as §6

human MAO-B [7] = biological target: T1, human MAO-B; test: Lineweaver-Burk plots and Ki calculation, MAO-B; assay type: biochemical
Method: as §5

[8] = Lineweaver-Burk plots cross on the y-axis
[9] = slopes of Lineweaver-Burk plots vs inhibitor concentration, kynuramine 15-250 μM
[10] = 4 × IC50, incubated 15 min, dialyzed 24 h, compared to negative control (100%)
[11] = 4 × IC50, not dialyzed, compared to negative control (100%)

Compound | Selectivity index (human MAO-B [1]) | IC50 (human MAO-B [1]) [µM] | IC50 (human MAO-A [2]) [µM] | Relative MAO-B mRNA expression vs negative control (MAO-B mRNA expression; 0 min) | Relative MAO-B mRNA expression vs negative control (MAO-B mRNA expression; 30 min) | Relative MAO-B mRNA expression vs negative control (MAO-B mRNA expression; 60 min) | melting point [°C] | Dopamine concentration vs vehicle-control ([3]; 30 min) | Dopamine concentration vs vehicle-control ([3]; 60 min) | Dopamine concentration vs vehicle-control ([3]; 120 min) | Reversibility of MAO-A inhibition (human MAO-A [5]) | other results
O=C(/C=C/c1ccc(F)cc1)c1ccc2c(c1)OCO2 [Compound 14, (E)-1-(benzo[d][1,3]dioxol-5-yl)-3–(4-fluorophenyl)prop-2-en-1-one] | 11 | 0.043 ± 0.004 | 0.506 ± 0.052 | no significant changes | reduced | no significant changes | 126 to 130 | increased | elevation | increase |  | Relative MAO-B mRNA expression vs negative control (MAO-B mRNA expression; 120 min): decreased; Relative MAO-B mRNA expression vs 0 min time point (MAO-B mRNA expression; 120 min exposure): decreased
O=C(/C=C/c1ccc(Cl)cc1)c1ccc2c(c1)OCO2 [Compound 16, (E)-1-(benzo[d][1,3]dioxol-5-yl)-3–(4-chlorophenyl)prop-2-en-1-one] | 3.0 | 0.05 ± 0.002 | 0.149 ± 0.011 |  |  |  |  |  |  |  | reversibly inhibits | Mode of MAO-A inhibition (human MAO-A [4]; [8]): competitive; Ki (human MAO-A [4]; [9]): 47 nM; MAO-A activity after dialysis (human MAO-A [5]; [10]): 103%; MAO-A activity, undialyzed samples (human MAO-A [5]; [11]): 31%; MAO-B activity after dialysis (human MAO-B [6]; [10]): 105%; MAO-B activity, undialyzed samples (human MAO-B [6]; [11]): 34%; Reversibility of MAO-B inhibition (human MAO-B [6]; dialysis 24 h, inhibitor at 4 × IC50): reversibly inhibits; Mode of MAO-B inhibition (human MAO-B [7]; [8]): competitive; Ki (human MAO-B [7]; [9]): 20 nM
O=C(/C=C/c1ccc([N+](=O)[O-])cc1)c1ccc2c(c1)OCO2 [Compound 17, (E)-1-(benzo[d][1,3]dioxol-5-yl)-3–(4-nitrophenyl)prop-2-en-1-one] | 13 | 0.069 ± 0.004 | 0.927 ± 0.121 | no significant changes | reduced | no significant changes | 172 to 175 | increased | elevation | increase |  | Relative MAO-B mRNA expression vs 0 min time point (MAO-B mRNA expression; 30 min exposure): reduced; Relative MAO-B mRNA expression vs 0 min time point (MAO-B mRNA expression; 60 min exposure): reduced
C#CCN(C)Cc1ccccc1 [Pargyline, reference compound] |  |  |  |  |  |  |  |  |  |  | dialysis failed to restore catalytic activity | 
